{
  "source": "paper PMC6988309",
  "about": "“Preclinical efficacy for a novel tyrosine kinase inhibitor, ArQule 531 against acute myeloid leukemia” (Journal of Hematology & Oncology, 2020)",
  "key": {"Ba/F3 FLT3-ITD/F691L": {"test_system": "Ba/F3 FLT3-ITD/F691L", "experiment": "MTT proliferation assay 72 h, Ba/F3 FLT3-ITD/F691L", "type": "cell-based, murine", "details": "Mus musculus, BaF3, read-out: Estimated absolute µM IC50 and 95% CI", "method": "(§1) For the MOLM-13 resistant and the Ba/F3-FLT3-ITD/TKD cell lines, cells were treated for 72 h and cell viability was evaluated using MTT assay (Roche Diagnostics. Mannheim. Germany) according to the manufacturer’s instructions."}, "Ba/F3 FLT3-ITD": {"test_system": "Ba/F3 FLT3-ITD", "experiment": "MTT proliferation assay 72 h, Ba/F3 FLT3-ITD", "type": "cell-based, murine", "details": "Mus musculus, read-out: Estimated absolute µM IC50 and 95% CI", "method": "(§2) A total of 5000–30,000 cells from the lines above were treated in a 96-well plate for 72 h. CellTiter 96 Aqueous MTS reagent (Promega, Madison, WI) was added to cells followed by a 3-h incubation at 37 °C, 5% CO2. The absorbance was measured at 490 nm using DTX 880 plate reader and the half maximal inhibitory concentration (IC50) was calculated using GraphPad Prism 7 (GraphPad Software, La Jolla, CA) and SAS/STAT software (SAS v9.4 for Windows, SAS Institute, Inc., Cary, NC). For the MOLM-13 resistant and the Ba/F3-FLT3-ITD/TKD cell lines, cells were treated for 72 h and cell viability was evaluated using MTT assay (Roche Diagnostics. Mannheim. Germany) according to the manufacturer’s instructions."}, "MCL1": {"test_system": "MCL1", "experiment": "Immunoblot of MCL1 modulation in MOLM-13", "type": "cell-based, human", "details": "MOLM-13, serum starved, 20 h treatment", "experimental": "Fig. 6 Immunoblot analysis for MCL1 modulation in MOLM-13 FLT3-ITD cell line (representative of two independent blots). Cells were serum starved and treated for 20 h with ARQ 531 alone or in combination with venetoclax. […] GAPDH used as loading control. Band densitometry is done using ImageJ and quantified relative to GAPDH and DMSO treatment (a). In vitro analysis for additive or synergistic activity for ARQ 531 and venetoclax combination. Representative of three MTS proliferation assays. The MOLM-13 cell line was treated with increasing doses of ARQ 531 or venetoclax single agents or a combination of both for 72 h. Three biological replicates were analyzed using Combenefit software implementing the mathematical models for Highest Single Agent (HSA), Loewe, and Bliss (b). […]"}, "[1]": {"experiment": "Toxicity in xenograft mouse studies", "type": "in vivo", "details": "xenograft mice, 50 mg/kg daily oral", "experimental": "All experiments were conducted after approval of The Ohio State University Institutional Animal Care and Use Committee. Mice were randomized and enrolled for daily oral gavage (Q.D.P.O) treatment of vehicle or 50 mg/kg ARQ 531. Mice were treated until reaching early removal criteria (ERC) defined as 20% weight loss, lethargy, hind limb paralysis, moribund, anorexia, dehydration, hunched posture, severe diarrhea, breathing difficulties, or any abnormal neurological symptoms."}, "MOLM13": {"test_system": "MOLM13", "experiment": "MTT proliferation assay 72 h, parental MOLM13", "type": "cell-based, human", "method": "as §2"}, "MOLM13-Res": {"test_system": "MOLM13-Res", "experiment": "MTT proliferation assay 72 h, MOLM13-Res (D835Y)", "type": "cell-based, human", "description": "As one of the main resistance mechanisms to FLT3 inhibitors is the acquisition of TKD mutations, we tested the anti-proliferative activity of ARQ 531 in the MOLM-13 TKI-resistant (MOLM13-Res) cell line previously described in Zimmerman et al.. In this model, MOLM-13 cells have gained a D835Y mutation via continuous exposure to the FLT3 inhibitor tandutinib."}, "FLT3-ITD": {"biological_target": "FLT3-ITD (Homo sapiens, UniProt P36888, ITD)", "sequence (P36888 564-993, stated change not applied)": "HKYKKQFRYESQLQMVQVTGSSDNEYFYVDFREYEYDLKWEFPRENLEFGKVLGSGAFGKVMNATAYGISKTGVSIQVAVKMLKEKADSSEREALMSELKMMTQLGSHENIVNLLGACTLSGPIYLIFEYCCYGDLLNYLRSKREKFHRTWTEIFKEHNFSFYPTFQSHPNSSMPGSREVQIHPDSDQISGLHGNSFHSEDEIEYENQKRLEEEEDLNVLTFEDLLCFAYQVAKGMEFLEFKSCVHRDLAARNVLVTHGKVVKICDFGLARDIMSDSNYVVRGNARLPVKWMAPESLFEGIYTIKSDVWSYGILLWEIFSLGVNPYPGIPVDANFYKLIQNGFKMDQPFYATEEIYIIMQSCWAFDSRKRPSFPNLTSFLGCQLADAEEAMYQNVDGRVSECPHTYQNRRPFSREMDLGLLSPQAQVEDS", "experiment": "Biochemical assay of recombinant kinases, FLT3-ITD", "details": "recombinant kinase domain, 10 μmol/L ATP", "experimental": "Biochemical inhibition of FLT3-WT and FLT3-ITD fusion was measured using recombinant protein constructs of kinase domains (Reaction Biology)."}, "[2]": {"test_system": "phosphorylated SFK, FLT3, STAT5, and ERK", "experiment": "Immunoblot of phosphorylated SFK, FLT3, STAT5 and ERK in FLT3-ITD cell lines", "type": "cell-based, human", "details": "MOLM-13 and MV4-11, serum starved, 10-min treatment", "experimental": "Cell lines were serum starved overnight followed by a 10-min treatment. Cells were washed in ice-cold PBS then lysed in 1X Cell Lysis Buffer (CST) supplemented with proteinase and phosphatase inhibitors cocktail (Roche). Pierce BCA Protein Assay was used to quantify the protein lysates (Thermo Fisher Scientific, Waltham, MA). For Immunoblotting, 15–25 μg of protein lysate was prepared in 2X or 4X Laemmeli’s sample buffer (Bio-Rad Laboratories, Hercules, CA) and heated for 5 min at 100 °C. Samples were separated on 8% sodium dodecyl sulfate polyacrylamide gel and transferred onto nitrocellulose membrane (Bio-Rad Laboratories, Hercules, CA). The membranes were blocked for 1 h in Blocker BLOTTO Blocking Buffer (Thermo Fisher Scientific, Waltham, MA) or 5% non-fat milk followed by overnight incubation at 4 °C with primary antibody followed by HRP-conjugated secondary antibodies and visualized with chemiluminescent Pierce ECL Substrate (Thermo Fisher Scientific, Waltham, MA) on X-ray films.\nImmunoblot analysis for MOLM-13, MV4-11, and OCI-AML3 AML cell lines (representative of 2-3 independent blots). […] Twenty to 25 μg of total protein lysate was loaded per lane."}, "Ba/F3 FLT3-ITD/D835Y": {"test_system": "Ba/F3 FLT3-ITD/D835Y", "experiment": "MTT proliferation assay 72 h, Ba/F3 FLT3-ITD/D835Y", "type": "cell-based, murine", "details": "Mus musculus, BaF3, read-out: Estimated absolute µM IC50 and 95% CI", "method": "as §1"}},
  "note": "Where two headings read alike, the source gives them in different places.",
  "data": [
    {"smiles": "O=C(c1ccc(Oc2ccccc2)cc1Cl)c1c[nH]c2ncnc(N[C@@H]3CC[C@@H](CO)OC3)c12", "note": "[ARQ 531]", "values": [
      {"measurement": "IC50", "setting": "Ba/F3 FLT3-ITD/F691L", "result": 7.12, "unit": "µM"},
      {"measurement": "IC50", "setting": "Ba/F3 FLT3-ITD", "result": 1.21, "unit": "µM"},
      {"measurement": "MCL1 protein level", "setting": "MCL1", "result": "MCL1 downregulation"},
      {"measurement": "toxicity", "setting": "[1]", "result": "lack of toxicity"},
      {"measurement": "IC50", "setting": "MOLM13; Homo sapiens, MOLM-13, 72 h, read-out: Estimated absolute µM IC50 and 95% CI, MTT, 72 h", "result": 1.33, "unit": "µM"},
      {"measurement": "IC50", "setting": "MOLM13; read-out: Estimated absolute µM IC50 and 95% CI, MTT, 72 h", "result": 1.3, "unit": "µM"},
      {"measurement": "IC50", "setting": "MOLM13-Res; Homo sapiens, read-out: Estimated absolute µM IC50 and 95% CI, MTT, 72 h", "result": 3.42, "unit": "µM"},
      {"measurement": "IC50", "setting": "MOLM13-Res; read-out: Estimated absolute µM IC50 and 95% CI, MTT", "result": 3.4, "unit": "µM"},
      {"measurement": "IC50", "setting": "FLT3-ITD", "result": 330, "unit": "nM"},
      {"measurement": "concentration inhibiting phosphorylated levels of SFK, FLT3, STAT5, and ERK", "setting": "[2]", "result": "≤ 500", "unit": "nM"},
      {"measurement": "IC50", "setting": "Ba/F3 FLT3-ITD/D835Y", "result": 7.55, "unit": "µM"}
    ]}
  ]
}
